# Measurements reported in patent publication US20260374766A1, “METHODS FOR TREATING CANCER” (Antares Therapeutics, Inc., priority 2022, published 2026).
# Legend:
# H1299 p53 Y220C = assay: Cell Proliferation Assay (CellTiter-Glo, CTG), H1299 p53 Y220C (NClH1299-inducible p53 Y220C); type: cell-based; conditions: Homo sapiens, NCI-H1299, 120 h, CellTiter-Glo, H1299 p53 Y220C, 5 days
# How it was run: (§1)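 Tet-One inducible p53 Y220C or R273H constructs were stably introduced into NCI-H1299 by lentiviral transduction; NUGC3 was used as is. Cells (250-500 per well) were exposed to compound for 5 days, then CellTiter-Glo was added for 10 min at room temperature and IC50 was calculated from luminescence.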
# [1] = molecular target: T1, p53 Y220C mutant protein (amino acid residues 94-293) (Homo sapiens, UniProt P04637, Y220C); assay: Surface Plasmon Resonance (SPR) assay, Kd_kinetic; type: binding; conditions: SPR, kinetic KD, p53 Y220C; read-out: SPR P53 Y220C KD kinetic
# T1 construct: p53 Y220C mutant protein (amino acid residues 94-293)
# How it was run: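 Kinetic dissociation constants derived by 1:1 model fit of SPR data acquired at 16 or 20 °C, pH 7.5 Tris/NaCl running buffer with 1% DMSO.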
# NUGC3 p53 Y220C = assay: Cell Proliferation Assay (CellTiter-Glo, CTG), NUGC3 p53 Y220C; type: cell-based; conditions: Homo sapiens, NUGC-3, 120 h, CellTiter-Glo, NUGC3 p53 Y220C, 5 days
# How it was run: as §1
# H1299 p53 R273H = assay: Cell Proliferation Assay (CellTiter-Glo, CTG), H1299 p53 R273H (NClH1299-inducible p53 R273H); type: cell-based; conditions: Homo sapiens, NCI-H1299, 120 h, CellTiter-Glo, H1299 p53 R273H, 5 days
# How it was run: as §1
# p53 Y220C = p53 Y220C (Homo sapiens, UniProt P04637, Y220C); assay: Luciferase Reporter Assay (Luc), p53 response element, NClH1299 cells with inducible p53 Y220C; type: cell-based; conditions: luciferase reporter, NClH1299 inducible p53 Y220C, 6 hour; for Emax: 10 uM tool compound as positive control; for AC50: read-out: Luc P53 Y220C AC50
# How it was run: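 24 h dox pre-induction (0.5 ug/mL), then 6 h compound; One-Glo luminescent read.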
# [2] = molecular target: T1, p53 Y220C mutant protein (amino acid residues 94-293); assay: Thermal Shift Assay (TSA), dTM; type: binding; conditions: thermal shift, 100 uM compound; read-out: TSA P53 Y220C dTM (100 uM)
# How it was run: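 Differential scanning fluorimetry with Sypro Orange on 5 μM p53 Y220C residues 94-293, compound tested at 10 μM or 100 μM after 3 hours at 20 °C; buffer 20 mM HEPES, pH7.4, 100 mM NaCl, 1% DMSO.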
IC50 (H1299 p53 Y220C),Kd [1],IC50 (H1299 p53 R273H),Emax (p53 Y220C),AC50 (p53 Y220C),ΔTm at 100 µM [2],SMILES,IC50 (NUGC3 p53 Y220C)
< 750 nM,< 10 nM,5000 to 8000 nM,70 to 80%,< 750 nM,≥ 10 °C,"CCS(=O)(=O)c1ccc(NCC#Cc2nc3c(N[C@@H]4CCN(C)C[C@@H]4F)cccn3c2CC(F)(F)F)c(OC)c1 [Example 66, (3S,4R)—N-[2-(3-{[4-(ethanesulfonyl)-2-methoxyphenyl]amino}prop-1-yn-1-yl)-3-(2,2,2-trifluoroethyl)imidazo[1,2-a]pyridin-8-yl]-3-fluoro-1-methylpiperidin-4-amine]",< 750 nM
< 750 nM,< 10 nM,5000 to 8000 nM,70 to 80%,< 750 nM,≥ 10 °C,"COc1cc(S(=O)(=O)C2CC2)ccc1NCC#Cc1nc2c(N[C@@H]3CCN(C)C[C@@H]3F)cccn2c1CC(F)(F)F [Example 67, (3S,4R)—N-[2-(3-{[4-(cyclopropanesulfonyl)-2-methoxyphenyl]amino}prop-1-yn-1-yl)-3-(2,2,2-trifluoroethyl)imidazo[1,2-a]pyridin-8-yl]-3-fluoro-1-methylpiperidin-4-amine]",< 750 nM
1500 to 3000 nM,10 to 100 nM,≥ 10000 nM,70 to 80%,1500 to 3000 nM,5 to 10 °C,"CN1CC[C@@H](Nc2cccn3c(CC(F)(F)F)c(C#CCNc4ccc(S(C)(=O)=O)cc4F)nc23)[C@@H](F)C1 [Example 68, (3S,4R)-3-fluoro-N-(2-{3-[(2-fluoro-4-methanesulfonylphenyl)amino]prop-1-yn-1-yl}-3-(2,2,2-trifluoroethyl)imidazo [1,2-a]pyridin-8-yl)-1-methylpiperidin-4-amine]",1500 to 3000 nM
> 3000 nM,100 to 1000 nM,≥ 10000 nM,< 70%,> 3000 nM,5 to 10 °C,"CN1CC[C@@H](Nc2cccn3c(CC(F)(F)F)c(C#CC(C)(C)O)nc23)[C@@H](F)C1 [Example 69, 4-(8-{[(3S,4R)-3-fluoro-1-methylpiperidin-4-yl]amino}-3-(2,2,2-trifluoroethyl)imidazo[1,2-a]pyridin-2-yl)-2-methylbut-3-yn-2-ol]",> 3000 nM
> 3000 nM,10 to 100 nM,≥ 10000 nM,< 70%,> 3000 nM,5 to 10 °C,"C[C@@H](O)C#Cc1nc2c(N[C@@H]3CCN(C)C[C@@H]3F)cccn2c1CC(F)(F)F [Example 70, (2R)-4-(8-{[(3S,4R)-3-fluoro-1-methylpiperidin-4-yl]amino}-3-(2,2,2-trifluoroethyl)imidazo[1,2-a]pyridin-2-yl)but-3-yn-2-ol]",> 3000 nM
> 3000 nM,100 to 1000 nM,≥ 10000 nM,< 70%,> 3000 nM,5 to 10 °C,"C[C@H](O)C#Cc1nc2c(N[C@@H]3CCN(C)C[C@@H]3F)cccn2c1CC(F)(F)F [Example 71, (2S)-4-(8-{[(3S,4R)-3-fluoro-1-methylpiperidin-4-yl]amino}-3-(2,2,2-trifluoroethyl)imidazo[1,2-a]pyridin-2-yl)but-3-yn-2-ol]",> 3000 nM
1500 to 3000 nM,> 1000 nM,< 5000 nM,< 70%,> 3000 nM,1 to 5 °C,"CN1CC[C@@H](Nc2cccn3c(CC(F)(F)F)c(C#C[C@@H](O)c4ccccc4)nc23)[C@@H](F)C1 [Example 72, (1S)-3-(8-{[(3S,4R)-3-fluoro-1-methylpiperidin-4-yl]amino}-3-(2,2,2-trifluoroethyl)imidazo[1,2-a]pyridin-2-yl)-1-phenylprop-2-yn-1-ol]",750 to 1500 nM
1500 to 3000 nM,100 to 1000 nM,< 5000 nM,< 70%,> 3000 nM,5 to 10 °C,"CN1CC[C@@H](Nc2cccn3c(CC(F)(F)F)c(C#C[C@H](O)c4ccccc4)nc23)[C@@H](F)C1 [Example 73, (1R)-3-(8-{[(3S,4R)-3-fluoro-1-methylpiperidin-4-yl]amino}-3-(2,2,2-trifluoroethyl)imidazo[1,2-a]pyridin-2-yl)-1-phenylprop-2-yn-1-ol]",1500 to 3000 nM
> 3000 nM,100 to 1000 nM,≥ 10000 nM,< 70%,> 3000 nM,5 to 10 °C,"CN1CC[C@@H](Nc2cccn3c(CC(F)(F)F)c(C#CCCN)nc23)[C@@H](F)C1 [Example 74, (3S,4R)—N-[2-(4-aminobut-1-yn-1-yl)-3-(2,2,2-trifluoroethyl)imidazo[1,2-a]pyridin-8-yl]-3-fluoro-1-methylpiperidin-4-amine]",> 3000 nM
750 to 1500 nM,< 10 nM,≥ 10000 nM,70 to 80%,1500 to 3000 nM,5 to 10 °C,"CN1CC[C@@H](Nc2cccn3c(CC(F)(F)F)c(C#CCNc4ccc(S(C)(=O)=O)cc4)nc23)[C@@H](F)C1 [Example 76, (3S,4R)-3-fluoro-N-(2-{3-[(4-methanesulfonylphenyl)amino]prop-1-yn-1-yl}-3-(2,2,2-trifluoroethyl)imidazo[1,2-a]pyridin-8-yl)-1-methylpiperidin-4-amine]",750 to 1500 nM
< 750 nM,< 10 nM,5000 to 8000 nM,70 to 80%,< 750 nM,≥ 10 °C,"COc1cc(S(=O)(=O)C(C)C)ccc1NCC#Cc1nc2c(N[C@@H]3CCN(C)C[C@@H]3F)cccn2c1CC(F)(F)F [Example 77, (3S,4R)-3-fluoro-N-[2-(3-{[2-methoxy-4-(propane-2-sulfonyl)phenyl]amino}prop-1-yn-1-yl)-3-(2,2,2-trifluoroethyl)imidazo[1,2-a]pyridin-8-yl]-1-methylpiperidin-4-amine]",< 750 nM
< 750 nM,< 10 nM,≥ 10000 nM,80 to 90%,< 750 nM,≥ 10 °C,"COc1cc(S(=O)(=O)C(C)C)ccc1NCC#Cc1nc2c(N[C@@H]3CCN(C)C[C@@H]3F)cccn2c1SC(F)(F)F [Example 78, (3S,4R)-3-fluoro-N-[2-(3-{[2-methoxy-4-(propane-2-sulfonyl)phenyl]amino}prop-1-yn-1-yl)-3-[(trifluoromethyl)sulfanyl]imidazo[1,2-a]pyridin-8-yl]-1-methylpiperidin-4-amine]",< 750 nM
< 750 nM,< 10 nM,8000 to 10000 nM,80 to 90%,< 750 nM,≥ 10 °C,"CCS(=O)(=O)c1ccc(NCC#Cc2nc3c(N[C@@H]4CCN(C)C[C@@H]4F)cccn3c2SC(F)(F)F)c(OC)c1 [Example 79, (3S,4R)—N-[2-(3-{[4-(ethanesulfonyl)-2-methoxyphenyl]amino}prop-1-yn-1-yl)-3-[(trifluoromethyl)sulfanyl]imidazo [1,2-a]pyridin-8-yl]-3-fluoro-1-methylpiperidin-4-amine]",< 750 nM
< 750 nM,< 10 nM,5000 to 8000 nM,80 to 90%,< 750 nM,≥ 10 °C,"CCS(=O)(=O)c1ccc(NCC#Cc2nc3c(N[C@@H]4CCNC[C@@H]4F)cccn3c2SC(F)(F)F)c(OC)c1 [Example 80, (3S,4R)—N-[2-(3-{[4-(ethanesulfonyl)-2-methoxyphenyl]amino}prop-1-yn-1-yl)-3-[(trifluoromethyl)sulfanyl]imidazo[1,2-a]pyridin-8-yl]-3-fluoropiperidin-4-amine]",< 750 nM
< 750 nM,< 10 nM,5000 to 8000 nM,80 to 90%,< 750 nM,≥ 10 °C,"COc1cc(S(=O)(=O)C2CC2)ccc1NCC#Cc1nc2c(N[C@@H]3CCN(C)C[C@@H]3F)cccn2c1SC(F)(F)F [Example 81, (3S,4R)—N-[2-(3-{[4-(cyclopropanesulfonyl)-2-methoxyphenyl]amino}prop-1-yn-1-yl)-3-[(trifluoromethyl)sulfanyl]imidazo[1,2-a]pyridin-8-yl]-3-fluoro-1-methylpiperidin-4-amine]",< 750 nM
